{
  "source": "paper PMC5241705",
  "about": "(ACS Infectious Diseases, 2016)",
  "key": {"[1]": {"test_system": "Mtb guaB2-guaB3 Tet-OFF attB::guaB3", "assay": "microbe, parasite or virus in culture", "type": "cell-based, Mycobacterium tuberculosis", "conditions": "for effect of guaB2 silencing on susceptibility: data not shown"}, "Mtb H37Rv [2]": {"test_system": "Mtb H37Rv", "assay": "Checkerboard assay, purine supplementation versus VCC234718", "type": "cell-based, Mycobacterium tuberculosis", "conditions": "for MIC90: Mycobacterium tuberculosis, H37RV"}, "[3]": {"test_system": "Mtb guaB2-guaB3 Tet-OFF attB::guaB3 and guaB2-guaB3 Tet-OFF", "type": "cell-based, Mycobacterium tuberculosis"}, "replicating H37Rv": {"test_system": "replicating H37Rv", "assay": "microbe, parasite or virus in culture", "type": "cell-based, Mycobacterium tuberculosis"}, "[4]": {"test_system": "nonreplicating, streptomycin-starved Mtb 18b or 18b-Lux", "assay": "Activity against nonreplicating bacilli", "type": "cell-based, Mycobacterium tuberculosis", "conditions": "concentrations up to 20 μM"}, "Mtb H37Rv (H37RvMA)": {"test_system": "Mtb H37Rv (H37RvMA)", "assay": "MIC by broth microdilution, AlamarBlue assay", "type": "cell-based", "conditions": "Mycobacterium tuberculosis"}, "Mtb H37Rv [5]": {"test_system": "Mtb H37Rv", "assay": "Time-kill kinetics", "type": "cell-based", "conditions": "Mycobacterium tuberculosis, read-out: 99% minimum bactericidal concentration (MBC99)"}, "[6]": {"test_system": "Mtb-infected MRC-5 fibroblasts", "type": "cell-based, human", "conditions": "concentration up to 50 μM"}, "[7]": {"test_system": "Mtb-infected activated THP-1 macrophages", "type": "cell-based, human"}, "Mtb SRMV2.3": {"test_system": "Mtb SRMV2.3", "assay": "microbe, parasite or virus in culture", "type": "cell-based", "conditions": "Mycobacterium tuberculosis"}, "Mtb SRMV2.6": {"test_system": "Mtb SRMV2.6", "assay": "microbe, parasite or virus in culture", "type": "cell-based, Mycobacterium tuberculosis"}, "Mtb SRMV2.10": {"test_system": "Mtb SRMV2.10", "assay": "microbe, parasite or virus in culture", "type": "cell-based", "conditions": "Mycobacterium tuberculosis"}, "Mtb SRMV2.6 attB::guaB2": {"test_system": "Mtb SRMV2.6 attB::guaB2", "assay": "MIC by AlamarBlue assay", "type": "cell-based", "conditions": "Mycobacterium tuberculosis"}, "[8]": {"test_system": "Mtb SRMV2.6 attB::guaB2-guaB3", "assay": "MIC by AlamarBlue assay", "type": "cell-based", "conditions": "Mycobacterium tuberculosis"}, "Mtb H37Rv attB::guaB2": {"test_system": "Mtb H37Rv attB::guaB2", "assay": "MIC by AlamarBlue assay", "type": "cell-based", "conditions": "Mycobacterium tuberculosis"}, "[9]": {"test_system": "Mtb H37Rv attB::guaB2-guaB3", "assay": "MIC by AlamarBlue assay", "type": "cell-based", "conditions": "Mycobacterium tuberculosis"}, "[10]": {"test_system": "PDIM-deficient H37Rv strain (H37RvJO)", "assay": "MIC by AlamarBlue assay", "type": "cell-based", "conditions": "Mycobacterium tuberculosis"}, "Mtb GuaB2": {"biological_target": "Mtb GuaB2 (Mycobacterium tuberculosis, UniProt P9WKI7)", "sequence (P9WKI7 whole entry, looked up)": "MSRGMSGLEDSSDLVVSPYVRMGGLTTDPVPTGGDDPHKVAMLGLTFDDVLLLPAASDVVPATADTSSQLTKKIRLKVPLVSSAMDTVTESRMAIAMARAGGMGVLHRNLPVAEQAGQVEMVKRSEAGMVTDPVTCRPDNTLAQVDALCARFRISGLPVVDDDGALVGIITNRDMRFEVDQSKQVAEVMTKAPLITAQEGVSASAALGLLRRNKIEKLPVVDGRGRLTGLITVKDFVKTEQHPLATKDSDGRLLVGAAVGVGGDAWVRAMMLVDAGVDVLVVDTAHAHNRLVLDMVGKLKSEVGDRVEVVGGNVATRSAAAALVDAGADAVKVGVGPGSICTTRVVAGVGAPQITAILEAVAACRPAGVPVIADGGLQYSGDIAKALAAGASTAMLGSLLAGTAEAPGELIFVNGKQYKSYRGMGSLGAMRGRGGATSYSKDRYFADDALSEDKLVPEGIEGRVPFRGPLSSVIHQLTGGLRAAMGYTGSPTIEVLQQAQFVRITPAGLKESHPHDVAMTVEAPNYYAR", "assay": "biochemical"}, "[11]": {"test_system": "Caco-2/TC-7 cell monolayers", "conditions": "threshold value 20 × 10^–7 cm s^–1"}, "[12]": {"conditions": "human primary hepatocytes"}, "[13]": {"conditions": "human and rodent liver microsomes and human liver primary hepatocytes"}, "[14]": {"test_system": "Corynebacterium glutamicum", "conditions": "phenotypic screen; cited from earlier work"}, "human ERG channel": {"biological_target": "human ERG channel (Homo sapiens, UniProt Q12809)", "sequence (Q12809 whole entry)": "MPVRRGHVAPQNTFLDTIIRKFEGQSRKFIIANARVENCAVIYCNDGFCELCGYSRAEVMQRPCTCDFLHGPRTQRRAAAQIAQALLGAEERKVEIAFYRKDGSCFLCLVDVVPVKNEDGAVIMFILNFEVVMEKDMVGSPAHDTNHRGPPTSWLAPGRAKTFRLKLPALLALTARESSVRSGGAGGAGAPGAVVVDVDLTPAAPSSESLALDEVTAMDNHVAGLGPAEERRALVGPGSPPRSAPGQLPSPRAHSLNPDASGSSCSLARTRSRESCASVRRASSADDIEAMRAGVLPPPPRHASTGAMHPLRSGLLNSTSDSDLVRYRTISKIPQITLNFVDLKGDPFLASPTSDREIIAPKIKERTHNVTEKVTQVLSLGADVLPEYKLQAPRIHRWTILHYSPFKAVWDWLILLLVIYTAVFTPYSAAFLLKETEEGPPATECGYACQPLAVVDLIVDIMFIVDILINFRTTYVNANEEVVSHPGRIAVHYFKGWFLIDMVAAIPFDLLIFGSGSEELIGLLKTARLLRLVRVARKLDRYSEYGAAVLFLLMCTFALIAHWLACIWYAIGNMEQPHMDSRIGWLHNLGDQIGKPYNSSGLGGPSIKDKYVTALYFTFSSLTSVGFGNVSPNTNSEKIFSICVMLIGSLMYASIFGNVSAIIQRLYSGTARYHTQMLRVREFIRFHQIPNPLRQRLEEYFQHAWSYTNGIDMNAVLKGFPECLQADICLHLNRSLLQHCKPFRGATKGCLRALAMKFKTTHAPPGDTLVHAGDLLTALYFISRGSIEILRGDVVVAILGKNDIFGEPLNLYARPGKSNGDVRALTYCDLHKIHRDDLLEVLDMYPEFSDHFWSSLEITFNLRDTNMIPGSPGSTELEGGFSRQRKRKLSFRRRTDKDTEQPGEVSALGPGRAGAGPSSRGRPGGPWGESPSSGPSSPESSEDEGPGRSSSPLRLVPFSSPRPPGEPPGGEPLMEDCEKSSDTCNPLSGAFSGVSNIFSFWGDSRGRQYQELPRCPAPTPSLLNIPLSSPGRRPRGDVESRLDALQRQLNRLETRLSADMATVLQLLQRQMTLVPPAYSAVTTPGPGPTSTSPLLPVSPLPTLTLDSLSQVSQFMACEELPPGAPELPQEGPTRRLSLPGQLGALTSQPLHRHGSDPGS", "assay": "cell-based"}},
  "note": "Entries after “also recorded” stand apart in the source; their conditions may differ.",
  "data": [
    {"smiles": "[H]/N=C(/N)N[C@H]1[C@H](O)[C@@H](O)[C@H](O[C@@H]2O[C@@H](C)[C@](O)(C=O)[C@H]2O[C@@H]2O[C@@H](CO)[C@H](O)[C@@H](O)[C@@H]2NC)[C@@H](N/C(N)=N\\[H])[C@@H]1O", "note": "[streptomycin]", "values": [
      {"measurement": "effect of guaB2 silencing on susceptibility", "setting": "[1]", "value": "no effect"}
    ]},
    {"smiles": "CO[C@H]1/C=C/O[C@@]2(C)Oc3c(C)c(O)c4c(O)c(c(/C=N/N5CCN(C)CC5)c(O)c4c3C2=O)NC(=O)/C(C)=C\\C=C\\[C@H](C)[C@H](O)[C@@H](C)[C@@H](O)[C@@H](C)[C@H](OC(C)=O)[C@@H]1C", "note": "[rifampicin]", "values": [
      {"measurement": "effect of guaB2 silencing on susceptibility", "setting": "[1]", "value": "no effect"}
    ]},
    {"smiles": "CC[C@@H](CO)NCCN[C@@H](CC)CO", "note": "[ethambutol]", "values": [
      {"measurement": "effect of guaB2 silencing on susceptibility", "setting": "[1]", "value": "no effect"}
    ]},
    {"smiles": "Nc1nc2nc[nH]c2c(=O)[nH]1", "note": "[guanine]", "values": [
      {"measurement": "rescue of Mtb from VCC234718 toxicity", "setting": "Mtb H37Rv [2]; VCC234718 at 128 μM", "value": "unable to rescue"},
      {"measurement": "guanine concentration giving essentially complete rescue from ATc toxicity", "setting": "[3]", "value": "≥ 125", "unit": "µM"}
    ]},
    {"smiles": "Nc1nc2c(ncn2[C@@H]2O[C@H](CO)[C@@H](O)[C@H]2O)c(=O)[nH]1", "note": "[guanosine]", "values": [
      {"measurement": "effect of supplementation on VCC234718 toxicity", "setting": "Mtb H37Rv [2]", "value": "neither adenine nor guanosine supplementation was able to rescue; also recorded: failed to rescue"}
    ]},
    {"smiles": "NNC(=O)c1ccncc1", "note": "[isoniazid]", "values": [
      {"measurement": "effect of guaB2 silencing on susceptibility", "setting": "[1]", "value": "no effect"}
    ]},
    {"smiles": "O=c1[nH]c(=O)c2nc[nH]c2[nH]1", "note": "[xanthine]", "values": [
      {"measurement": "effect of supplementation on VCC234718 toxicity", "setting": "Mtb H37Rv [2]", "value": "no effect"}
    ]},
    {"smiles": "C[C@H]1COc2c(N3CCN(C)CC3)c(F)cc3c(=O)c(C(=O)O)cn1c23", "note": "[levofloxacin]", "values": [
      {"measurement": "effect of guaB2 silencing on susceptibility", "setting": "[1]", "value": "no effect"}
    ]},
    {"smiles": "O=C(C1CCCCC1)N1CCN(S(=O)(=O)c2cccc3cnccc23)CC1", "note": "[VCC234718, N-(5-Isoquinolinylsulfonyl)-N’-cyclohexanoyl-piperazine]", "values": [
      {"measurement": "inhibition at 20 µM", "setting": "replicating H37Rv; Mycobacterium tuberculosis, H37RV, 168 h, read-out: percentage inhibition of resazurin reduction", "value": "> 80", "unit": "%"},
      {"measurement": "MIC90", "setting": "replicating H37Rv; Mycobacterium tuberculosis, H37RV, read-out: 90% minimum inhibitory concentration (MIC90)", "value": 5, "unit": "µM"},
      {"measurement": "inhibition of H37Rv growth", "setting": "replicating H37Rv; at 20 μM", "value": "totally inhibit"},
      {"measurement": "inhibition of nonreplicating Mtb", "setting": "[4]", "value": "not significantly inhibiting"},
      {"measurement": "MIC90", "setting": "Mtb H37Rv (H37RvMA)", "value": 2, "unit": "µM"},
      {"measurement": "MBC", "setting": "Mtb H37Rv [5]", "value": "16 to 32", "unit": "µM"},
      {"measurement": "anticytolytic activity in MRC-5 fibroblasts", "setting": "[6]", "value": "completely inactive"},
      {"measurement": "concentrations displaying anticytolytic activity in activated THP-1 macrophages", "setting": "[7]", "value": "> 1", "unit": "µM"},
      {"measurement": "MIC90", "setting": "Mtb SRMV2.3", "value": 16, "unit": "µM"},
      {"measurement": "MIC90", "setting": "Mtb SRMV2.6; Mycobacterium tuberculosis, SRMV2.6", "value": "> 100", "unit": "µM"},
      {"measurement": "MIC90", "setting": "Mtb SRMV2.6; strain SRMV2.6", "value": ">100", "unit": "µM"},
      {"measurement": "MIC90", "setting": "Mtb SRMV2.10", "value": 8, "unit": "µM"},
      {"measurement": "MIC90", "setting": "Mtb SRMV2.6 attB::guaB2", "value": "> 200", "unit": "µM"},
      {"measurement": "MIC90", "setting": "[8]", "value": "> 200", "unit": "µM"},
      {"measurement": "MIC90", "setting": "Mtb H37Rv attB::guaB2", "value": "4 to 8", "unit": "µM"},
      {"measurement": "MIC90", "setting": "[9]", "value": "4 to 8", "unit": "µM"},
      {"measurement": "MIC90", "setting": "[10]", "value": 2, "unit": "µM"},
      {"measurement": "Ki", "setting": "Mtb GuaB2; Mtb GuaB2", "value": 100, "unit": "nM"},
      {"measurement": "Ki", "setting": "Mtb GuaB2; Mtb GuaB2, IMP as the substrate", "value": 120, "unit": "nM"},
      {"measurement": "mechanism of inhibition", "setting": "Mtb GuaB2; with respect to IMP and NAD+", "value": "uncompetitive"},
      {"measurement": "MIC90", "setting": "[1]; Mycobacterium tuberculosis, checkerboard, before guaB2 silencing (lowest ATc)", "value": 2.5, "unit": "µM"},
      {"measurement": "MIC90", "setting": "Mtb H37Rv [2]; checkerboard, without guanine", "value": 2, "unit": "µM"},
      {"measurement": "MIC90", "setting": "Mtb H37Rv [2]; guanine concentration of 200 μM", "value": "> 64", "unit": "µM"},
      {"measurement": "permeability (in words)", "setting": "[11]", "value": "very high"},
      {"measurement": "contribution of CYP3A4 to metabolism (in words)", "setting": "[12]", "value": "no contribution"},
      {"measurement": "metabolism (in words)", "setting": "[13]", "value": "highly metabolized"},
      {"measurement": "whole-cell activity", "setting": "[14]", "value": "not against Corynebacterium glutamicum"},
      {"measurement": "IC50", "setting": "human ERG channel", "value": 13700, "unit": "nM"}
    ]},
    {"smiles": "Nc1ncnc2[nH]cnc12", "note": "[adenine]", "values": [
      {"measurement": "effect of supplementation on VCC234718 toxicity", "setting": "Mtb H37Rv [2]", "value": "neither adenine nor guanosine supplementation was able to rescue"}
    ]}
  ]
}
